# Numbering of substitutions follows the chain as printed.
# Assays:
# Format in all cases: biochemical
# AKR1C3 = target: T1, AKR1C3 (Homo sapiens, UniProt P42330); assay: inhibition of NADP+-dependent S-tetralol oxidation by recombinant enzyme
# T1 construct: homogeneous recombinant enzyme
# T1 sequence (P42330 1-323): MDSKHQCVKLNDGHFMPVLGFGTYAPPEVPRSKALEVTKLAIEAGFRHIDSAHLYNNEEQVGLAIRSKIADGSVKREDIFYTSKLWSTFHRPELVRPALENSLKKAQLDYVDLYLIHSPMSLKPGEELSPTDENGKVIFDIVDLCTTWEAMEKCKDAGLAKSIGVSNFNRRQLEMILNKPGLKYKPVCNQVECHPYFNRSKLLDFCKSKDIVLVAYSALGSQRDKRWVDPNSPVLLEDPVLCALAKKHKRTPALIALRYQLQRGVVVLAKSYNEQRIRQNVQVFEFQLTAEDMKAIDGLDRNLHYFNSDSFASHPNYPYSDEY
# AKR1C1 = target: T2, AKR1C1 (Homo sapiens, UniProt Q04828); assay: specific activity of purified enzyme, absorbance at […] nm
# T2 construct: homogeneous recombinant enzyme
# T2 sequence (Q04828 1-323): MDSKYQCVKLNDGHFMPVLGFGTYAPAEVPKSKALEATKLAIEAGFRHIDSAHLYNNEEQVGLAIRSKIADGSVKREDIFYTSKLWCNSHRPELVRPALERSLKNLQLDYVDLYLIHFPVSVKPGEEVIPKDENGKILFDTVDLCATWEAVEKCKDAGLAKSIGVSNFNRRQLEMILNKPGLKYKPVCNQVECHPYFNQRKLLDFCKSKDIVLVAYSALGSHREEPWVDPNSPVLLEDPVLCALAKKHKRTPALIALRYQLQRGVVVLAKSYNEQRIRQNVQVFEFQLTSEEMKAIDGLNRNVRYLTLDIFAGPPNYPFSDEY
# AKR1C2 = target: T3, AKR1C2 (Homo sapiens, UniProt P52895); assay: oxidation by purified enzyme, absorbance at […] nm; Km; conditions: cited from earlier work
# T3 construct: homogeneous recombinant enzyme
# T3 sequence (P52895 1-323): T2 sequence (Q04828 1-323) with T38V, R47H, L54V, C87S, V151M, R170H, Q172L
Structure (SMILES),IC50 (AKR1C3),"specific activity of purified enzyme, absorbance at 340 nm (AKR1C1)",Km (AKR1C2)
"O=C(O)/C=C/c1cc(C(=O)NCc2ccc(OCc3cn(CCOCCOCC(=O)Nc4cccc5c4CN(C4CCC(=O)NC4=O)C5=O)nn3)cc2)cc(-c2ccccc2)c1 (stereo not shown) [compound 5, (E)-3-(5-((4-((1-(2-(2-(2-((2-(2,6-dioxopiperidin-3-yl)-1-oxoisoindolin-4-yl)amino)-2-oxoethoxy)ethoxy)ethyl)-1H-1,2,3-triazol-4-yl)methoxy)benzyl)carbamoyl)-[1,1’-biphenyl]-3-yl)acrylic acid]",77 ± 2 nM,,
"C#CCOc1ccc(CNC(=O)c2cc(/C=C/C(=O)O)cc(-c3ccccc3)c2)cc1 [compound 4, warhead 4]",62 ± 1 nM,,
"O[C@H]1CCCc2ccccc21 [S-tetralol, (S)-(+)-1,2,3,4-tetrahydro-1-naphthol]",,1.4 µmol/min/mg,15 µM
